IC50 and EC50 data for nine compounds are collected here from patent US10981932B2, “Macrocyclic indole derivatives” (Bayer Aktiengesellschaft, priority 2016, dated 2021).

Molecules are shown by their SMILES. Like-named read-outs stand apart in the source and are kept apart here.

The target of one data set is MCL-1 (Homo sapiens, UniProt Q07820). The data set is described as follows: Protein-protein interaction assay MCL-1/Noxa BH3 peptide (MCL-1 assay), TR-FRET. The data set is classed as binding. Conditions: MBP-MCL-1 / Noxa BH3-derived peptide, median. Put shortly: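 Inhibition values were normalized between DMSO controls with all reagents and controls lacking MCL-1. The binding competition used 1 nM MBP-MCL-1 in pH 7 Tris buffer containing 50 mM KF and 100 mM NaCl, with a 10 min compound preincubation at 22 °C.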

The subject of data set [1] is SUDHL5. The data set is described as follows: Induction of cytotoxicity (CellTiter-Glo, 5 h), SUDHL5. Conditions: Homo sapiens, SU-DHL-5, 5 h.
In data set [2] the test system is SUDHL10. The data set is described as follows: Induction of caspase-3/7 activity (Caspase-Glo 3/7), SUDHL10. The data set is classed as cell-based. Conditions: caspase-3/7 induction, SUDHL10 cells, 3 h treatment, median. In outline:
(§1)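 Apoptosis induction measured as caspase-3/7 activity (Caspase-Glo 3/7) in DLBCL lines after 3 h treatment at 37 °C; EC50 derived relative to the reference compound's maximal induction, with C0 fixed at 1.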

For another data set, the system named is MV-4-11. In words: Anti-proliferative effect (CellTiter-Glo, 72 h), MV-4-11. The data set is classed as cell-based. Conditions: Homo sapiens, MV4-11, 72 h, MV-4-11 cells, median, read-out: IC50 antiproliferation assay MV-4-11 [M] (median). As for the experimental part: Assessment of the Anti-Proliferative Effect of Compounds in Different Cell Lines
The impact of compounds on the proliferation of different cell lines was assessed using the CellTiter-Glo® Luminescent Cell Viability reagent from Promega (G7573). Of note, SUDHL10 and SUDHL5 (DLBCL), NCI-H929 (Multiple Myeloma), A2780 (ovarian carcinoma) as well as MV-4-11(AML) cells are sensitive to MCL-1 inhibition.
In parallel, cells were plated in a reference (day 0) plate for time zero determination.
Rim wells were excluded. The cells were incubated for 72 h hours in a humidified incubator at 37° C. The day 0 plate was measured by adding 30 μl/well of CTG solution (CellTiter-Glo® Luminescent Cell Viability reagent, Promega G7573) to time zero wells in the reference plate followed by a 10 minutes incubation and luminescence reading at 0.1 ms, using the PHERAstar FS microplate reader (BMG Labtech).
After 72 h incubation, the treated plates were measured in the same way as the day 0 plate mentioned above.
(In general: In ATP-based viability assays light output follows the ATP content of the culture.)

The next data set has as its system A2780. In words: Anti-proliferative effect (CellTiter-Glo, 72 h), A2780. The note with it: A2780 cells, median, read-out: IC50 antiproliferation assay A2780 [M] (median). The data set is classed as cell-based. Put shortly: (§2)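 After seeding, one plate is read right away by CellTiter-Glo luminescence to fix time zero. The treated plates stay at 37 °C in humidified air for 72 h and are then measured with the same reagent and 10 min incubation.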

Data set [3] deals with SUDHL10. The data set is described as follows: Induction of cytotoxicity (CellTiter-Glo, 5 h), SUDHL10.
For data set [4], the system named is SUDHL5. In words: Induction of caspase-3/7 activity (Caspase-Glo 3/7), SUDHL5. The data set is classed as cell-based. The note with it: Homo sapiens, SU-DHL-5, 3 h, caspase-3/7 induction, SUDHL5 cells, 3 h treatment; median. Put shortly:
as §1

Data set [5] deals with SUDHL5. In words: Anti-proliferative effect (CellTiter-Glo, 72 h), SUDHL5. Type of data set: cell-based. Conditions: Homo sapiens, SU-DHL-5, 72 h, SUDHL5 cells, antiproliferation, median, read-out: Antiproli SUDHL5 [M] (median). In outline: as §2
Where [6] appears, read: read-out: Cytotox SUDHL5 [M] (median), SUDHL5 cells, cytotoxicity induction, CellTiter-Glo, 5 h incubation, median.
[7] abbreviates: Homo sapiens, SU-DHL10, 5 h, read-out: Cytotox SUDHL10 [M] (median), SUDHL10 cells, cytotoxicity induction, CellTiter-Glo, 5 h incubation, median.
Setting [8] is: read-out: Cytotox SUDHL5 [M] (median), SUDHL5 cells, cytotoxicity induction, CellTiter-Glo, 5 h, median.
Setting [9] is: Homo sapiens, SU-DHL10, 5 h, read-out: Cytotox SUDHL10 [M] (median), SUDHL10 cells, cytotoxicity induction, CellTiter-Glo, 5 h, median.

Sequence of MCL-1 (Q07820 whole entry): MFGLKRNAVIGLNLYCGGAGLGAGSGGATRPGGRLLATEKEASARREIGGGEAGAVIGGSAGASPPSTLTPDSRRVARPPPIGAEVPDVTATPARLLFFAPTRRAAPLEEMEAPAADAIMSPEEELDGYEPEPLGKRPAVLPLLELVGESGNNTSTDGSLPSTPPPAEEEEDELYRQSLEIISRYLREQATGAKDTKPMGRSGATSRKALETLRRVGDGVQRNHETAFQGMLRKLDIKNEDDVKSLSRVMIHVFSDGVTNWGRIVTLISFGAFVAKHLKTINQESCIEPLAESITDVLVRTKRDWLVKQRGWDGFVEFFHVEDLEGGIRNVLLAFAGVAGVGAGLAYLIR

In general, EC50 refers to the concentration that produces a half-maximal response. The low end stands for greater potency, the high end for weaker potency. Consider `CN1CCCCn2c(C(=O)O)c(CCCOc3cccc4ccccc34)c3cccc(c32)-c2c(CC(F)(F)F)nn(C)c2C1` (racemic) [Example 222, (rac)-1,14-dimethyl-7-[3-(naphthalen-1-yloxy)propyl]-3-(2,2,2-trifluoroethyl)-10,11,12,13,14,15-hexahydro-1H-pyrazolo[3′,4′:8,9][1,6]diazacycloundecino[10,11,1-hi]indole-8-carboxylic Acid], for which the IC50 was 0.00597 µM on MCL-1; 1.15e-05 M in the data set on SUDHL5 [1] (setting [6]); 7.87e-06 M in the data set on MV-4-11; 2.46e-05 M in the data set with A2780 (Homo sapiens, A2780, 72 h); 2.01e-05 M in the data set with SUDHL10 [3] (setting [7]); 9.85e-06 M in the data set on SUDHL5 [5] (72 h incubation). For the same compound, the EC50 came out at 18.2 µM in the data set on SUDHL10 [2] (Homo sapiens, SU-DHL10, 3 h) and 14.4 µM in the data set with SUDHL5 [4].

Consider `CN1CCCCn2c(C(=O)O)c(CCCOc3cccc4ccccc34)c3cccc(c32)-c2c(/C=C/F)nn(C)c2C1` (racemic) [Example 225, (rac)-3-[(E)-2-fluoroethenyl]-1,14-dimethyl-7-[3-(naphthalen-1-yloxy)propyl]-10,11,12,13,14,15-hexahydro-1H-pyrazolo[3′,4′:8,9][1,6]diazacycloundecino[10,11,1-hi]indole-8-carboxylic Acid], for which the IC50 on MCL-1 is 0.0032 µM; in the data set on SUDHL5 [1] (setting [6]) it was 1.32e-05 M; with MV-4-11, 1.85e-05 M; with A2780 (Homo sapiens, A2780, 72 h) it was 2.33e-05 M; with SUDHL10 [3] (setting [7]), 3.27e-05 M; in the data set on SUDHL10 [3] (read-out: Cytotox SUDHL10 [M] (median), SUDHL10 cells, cytotoxicity induction, CellTiter-Glo, 5 h incubation, median) it was above 3.3e-05 M. Further, the IC50 with SUDHL5 [5] (72 h incubation) stood at 7.21e-06 M. In addition, the concentration for a half-maximal effect (EC50) with SUDHL10 [2] (Homo sapiens, SU-DHL10, 3 h) is 19.6 µM; in the data set with SUDHL10 [2], above 33 µM; in the data set on SUDHL5 [4], 16.5 µM.

Take `CCc1c2c(nn1C)COCCCCn1c(C(=O)O)c(CCCOc3cccc4c3CCCC4)c3cccc-2c31` (racemic) [Example 290, (rac)-12-ethyl-11-methyl-1-(3-((5,6,7,8-tetrahydronaphthalen-1-yl)oxy)propyl)-4,5,6,7,9,11-hexahydropyrazolo[4′,3′:9,10][1]oxa[6]azacycloundecino[8,7,6-hi]indole-2-carboxylic Acid]: the IC50 on MCL-1 is 0.0028 µM; in the data set on SUDHL5 [1] (setting [8]) it was 3.61e-06 M; in the data set on MV-4-11, 9.57e-06 M; in the data set on A2780, 2.62e-05 M; with A2780 (Homo sapiens, A2780, 72 h) it was above 3.3e-05 M; in the data set with SUDHL10 [3] (setting [9]), 1.19e-05 M. Moreover, in the data set on SUDHL5 [5] (72 h), the IC50 worked out at 5.06e-06 M. The EC50 stood at 13.6 µM in the data set with SUDHL10 [2] (Homo sapiens, SU-DHL10, 3 h) and 3.38 µM with SUDHL5 [4].

On to `CCc1nn(C)c2c1-c1cccc3c(CCCOc4cccc5c4CCCC5)c(C(=O)O)n(c13)CCCCOC2` (racemic) [Example 291, (rac)-12-ethyl-10-methyl-1-(3-((5,6,7,8-tetrahydronaphthalen-1-yl)oxy)propyl)-4,5,6,7,9,10-hexahydropyrazolo[4′,3′:9,10][1]oxa[6]azacycloundecino[8,7,6-hi]indole-2-carboxylic Acid], for which the IC50 on MCL-1 is 0.00238 µM; in the data set on SUDHL5 [1] (setting [8]), 8.6e-06 M; with MV-4-11 it was 1.82e-05 M; in the data set with A2780 (Homo sapiens, A2780, 72 h), above 3.3e-05 M; in the data set with SUDHL10 [3] (setting [9]), above 3.3e-05 M; in the data set on SUDHL5 [5] (72 h), 8.71e-06 M. Further, the concentration giving a half-maximal response (EC50) in the data set on SUDHL10 [2] (Homo sapiens, SU-DHL10, 3 h) is 32 µM; in the data set on SUDHL10 [2] it was above 33 µM; in the data set on SUDHL5 [4] it was 8.51 µM.

In the case of `Cc1ccc2c(CCCOc3cccc4cc(F)ccc34)c(C(=O)O)n3c2c1-c1c(nn(CCN2CCOCC2)c1C)COCCCC3` (racemic) [Example 292, (rac)-7-{3-[(6-fluoronaphthalen-1-yi)oxy]propyl}-3,4-dimethyl-2-[2-(morpholin-4-yl)ethyl]-2,10,11,12,13,15-hexahydropyrazolo[4′,3′:9,10][1,6]oxazacycloundecino[8,7,6-hi]indole-8-carboxylic Acid], the IC50 on MCL-1 worked out at 0.00184 µM; in the data set on SUDHL5 [1] (setting [8]) it was 1.13e-06 M; in the data set on MV-4-11, 8.52e-06 M; in the data set on A2780 (Homo sapiens, A2780, 72 h), 1.58e-05 M; with SUDHL10 [3] (setting [9]), 1.52e-06 M; in the data set with SUDHL5 [5] (72 h), 1.59e-06 M. The EC50 was 1.21 µM in the data set with SUDHL10 [2] (Homo sapiens, SU-DHL10, 3 h) and 0.671 µM with SUDHL5 [4].

As to `Cc1c2c(nn1C)COCCCCn1c(C(=O)O)c(CCCOc3cccc4cc(Cl)ccc34)c3cccc-2c31` (racemic) [Example 295, (rac)-7-{3-[(6-chloronaphthalen-1-yl)oxy]propyl}-2,3-dimethyl-2,10,11,12,13,15-hexahydropyrazolo[4′,3′:9,10][1,6]oxazacycloundecino[8,7,6-hi]indole-8-carboxylic Acid], the IC50 at MCL-1 is 0.00528 µM; with SUDHL5 [1] (setting [8]), 1.61e-05 M; in the data set on MV-4-11, 1.58e-05 M; in the data set with A2780 (Homo sapiens, A2780, 72 h), 1.72e-05 M; with SUDHL10 [3] (setting [9]), 1.8e-05 M; in the data set with SUDHL5 [5] (72 h) it was 9.86e-06 M. The EC50 was determined as 19 µM in the data set on SUDHL10 [2] (Homo sapiens, SU-DHL10, 3 h) and 17 µM in the data set with SUDHL5 [4].

Consider `CCc1nn(C)c2c1-c1cccc3c(CCCOc4cccc5c(F)cccc45)c(C(=O)O)n(c13)CCCCOC2` (racemic) [Example 298, (rac)-3-ethyl-7-{3-[(5-fluoronaphthalen-1-yl)oxy]propyl}-1-methyl-1,10,11,12,13,15-hexahydropyrazolo[4′,3′:9,10][1,6]oxazacycloundecino[8,7,6-hi]indole-8-carboxylic Acid], for which the IC50 was found to be 0.0017 µM at MCL-1; 9.1e-06 M in the data set with SUDHL5 [1] (setting [8]); 9.4e-06 M in the data set on MV-4-11; 2.66e-05 M in the data set on A2780 (Homo sapiens, A2780, 72 h); 2.27e-05 M in the data set with SUDHL10 [3] (setting [9]); 1.09e-05 M in the data set with SUDHL5 [5] (72 h). For the same compound, the EC50 in the data set on SUDHL10 [2] (Homo sapiens, SU-DHL10, 3 h) was determined as 20.5 µM; in the data set with SUDHL5 [4] it was 8.78 µM.

Consider `Cc1c2c(nn1C)COCCCCn1c(C(=O)O)c(CCCOc3cccc4cc(F)ccc34)c3cccc-2c31` (racemic) [Example 301, (rac)-7-{3-[(6-fluoronaphthalen-1-yl)oxy]propyl}-2,3-dimethyl-2,10,11,12,13,15-hexahydropyrazolo[4′,3′:9,10][1,6]oxazacycloundecino[8,7,6-hi]indole-8-carboxylic Acid], for which the IC50 against MCL-1 is 0.00143 µM; in the data set with SUDHL5 [1] (setting [8]) it was 1.6e-06 M; in the data set on MV-4-11, 5.99e-06 M; in the data set with A2780 (Homo sapiens, A2780, 72 h), 1.56e-05 M; with SUDHL10 [3] (setting [9]), 3.5e-06 M; in the data set with SUDHL5 [5] (72 h) it was 2e-06 M. Besides, the EC50 in the data set on SUDHL10 [2] (Homo sapiens, SU-DHL10, 3 h) is 3.29 µM; in the data set on SUDHL5 [4], 1.19 µM.

On to `CCc1nn(C)c2c1-c1cccc3c(CCCOc4cccc5cc(Cl)ccc45)c(C(=O)O)n(c13)CCCCOC2` (racemic) [Example 304, (rac)-11-(3-((6-chloronaphthalen-1-yl)oxy)propyl)-12-ethyl-10-methyl-4,5,6,7,9,10-hexahydropyrazolo[4′,3′:9,10][1,6]oxaazacycloundecino[8,7,6-hi]indole-2-carboxylic Acid], for which the IC50 is 0.0105 µM on MCL-1; above 3.3e-05 M with SUDHL5 [1] (setting [8]); 3.13e-05 M in the data set on MV-4-11; 1.34e-05 M with A2780 (Homo sapiens, A2780, 72 h); above 3.3e-05 M in the data set on SUDHL10 [3] (setting [9]); 9.84e-06 M in the data set with SUDHL5 [5] (72 h). In addition, the concentration giving a half-maximal response (EC50) in the data set with SUDHL10 [2] (Homo sapiens, SU-DHL10, 3 h) was above 33 µM; in the data set on SUDHL5 [4], above 33 µM.
